In PubChem BioAssay AID248 (DTP/NCI, 2004):
Values joined by “and” are separate entries in the source; they are usually repeats but may differ in a detail not shown here. Equal entries are not always repeated. Toxic doses and inconclusive results are not listed. Rule as the data show it: active = T/C of 150% or more; inactive = T/C below 125%.

Test system: L1210 leukemia ip in BDF1 mice, survival T/C
Experiment: NCI In Vivo Anticancer Drug Screen. Data for tumor model L1210 Leukemia (intraperitoneal) in B6D2F1 (BDF1) mice
Conditions: endpoint: mean survival time, higher = longer survival
How it was run: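 Mice bearing the transplanted tumor received compound or vehicle. Survival of the treated group was divided by that of the vehicle-treated control group to give the ratio.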

[1] = dose: 100.0 mg/kg/injection, schedule: Q01DX001 (ip), vehicle: Klucel (hydroxypropylcellulose) (HPC)
[2] = dose: 100.0 mg/kg/injection, schedule: Q01DX009 (ip), vehicle: Klucel (hydroxypropylcellulose) (HPC)
[3] = dose: 200.0 mg/kg/injection, schedule: Q01DX001 (ip), vehicle: Klucel (hydroxypropylcellulose) (HPC)
[4] = dose: 200.0 mg/kg/injection, schedule: Q01DX009 (ip), vehicle: Klucel (hydroxypropylcellulose) (HPC)
[5] = dose: 400.0 mg/kg/injection, schedule: Q01DX001 (ip), vehicle: Klucel (hydroxypropylcellulose) (HPC)
[6] = dose: 400.0 mg/kg/injection, schedule: Q01DX009 (ip), vehicle: Klucel (hydroxypropylcellulose) (HPC)
[7] = dose: 100.0 mg/kg/injection, schedule: Q01DX001 (ip), vehicle: saline
[8] = dose: 200.0 mg/kg/injection, schedule: Q01DX001 (ip), vehicle: saline
[9] = dose: 400.0 mg/kg/injection, schedule: Q01DX001 (ip), vehicle: saline
[10] = dose: 100.0 mg/kg/injection, schedule: Q01DX009 (ip), vehicle: other
[11] = dose: 100.0 mg/kg/injection, schedule: Q04DX003 (ip), vehicle: Klucel (hydroxypropylcellulose) (HPC)
[12] = dose: 200.0 mg/kg/injection, schedule: Q01DX009 (ip), vehicle: other
[13] = dose: 200.0 mg/kg/injection, schedule: Q04DX003 (ip), vehicle: Klucel (hydroxypropylcellulose) (HPC)
[14] = dose: 400.0 mg/kg/injection, schedule: Q04DX003 (ip), vehicle: Klucel (hydroxypropylcellulose) (HPC)
[15] = dose: 100.0 mg/kg/injection, schedule: Q04DX002 (ip), vehicle: Klucel (hydroxypropylcellulose) (HPC)
[16] = dose: 200.0 mg/kg/injection, schedule: Q04DX002 (ip), vehicle: Klucel (hydroxypropylcellulose) (HPC)

Measured: T/C

CCOC(=O)NC(CC)c1ccc2oc3ccccc3c2c1 (stereo not given)
inactive: [1] 98 % of control | [2] 90 % of control | [3] 103 % of control | [4] 94 % of control | [5] 108 % of control | [6] 95 % of control

N=C(N)N=Nc1ccc(NN=C(N)N)cc1
inactive: dose: 3.75 mg/kg/injection, schedule: Q01DX Z (ip), vehicle: saline 96 % of control | dose: 7.5 mg/kg/injection, schedule: Q01DX Z (ip), vehicle: saline 103 % of control | dose: 30.0 mg/kg/injection, schedule: Q01DX Z (ip), vehicle: saline 118 % of control | dose: 60.0 mg/kg/injection, schedule: Q01DX Z (ip), vehicle: saline 98 % of control and 87 % of control

CC(=O)OCC1OC(n2c(=S)[nH]c3c(N)ncnc32)C(OC(C)=O)C1OC(C)=O (stereo not given)
inactive: dose: 50.0 mg/kg/injection, schedule: Q01DX001 (ip), vehicle: saline 98 % of control | [7] 98 % of control | [8] 95 % of control | [9] 98 % of control

CCN(CC)CCCC(C)Nc1cc(C)nc(Nc2nc3cc(Cl)c(Cl)cc3[nH]2)n1 (stereo not given)
inactive: dose: 5.0 mg/kg/injection, schedule: Q01DX009 (ip), vehicle: saline with Tween-80 96 % of control | dose: 10.0 mg/kg/injection, schedule: Q01DX009 (ip), vehicle: saline with Tween-80 93 % of control

O=NC12CCCCC1C(O)c1cc(Cl)cc(Cl)c1O2 (stereo not given)
inactive: [10] 119 % of control | [11] 101 % of control | [12] 95 % of control | [13] 95 % of control | dose: 400.0 mg/kg/injection, schedule: Q01DX009 (ip), vehicle: other 89 % of control | [14] 102 % of control

C#CCOCCC#N
inactive: dose: 100.0 mg/kg/injection, schedule: Q04DX002 (ip), vehicle: saline 101 % of control | dose: 200.0 mg/kg/injection, schedule: Q04DX002 (ip), vehicle: saline 94 % of control

CCOP(=O)(OCC)Oc1ccc(Sc2ccc(OP(=O)(OCC)OCC)cc2)cc1
inactive: [7] 108 % of control

C#CC1(N2CCCCC2)CCCCC1
inactive: [15] 102 % of control | [16] 98 % of control

NC(=O)Nc1nc(-c2ccccc2)no1
inactive: [2] 103 % of control | [11] 97 % of control | [4] 93 % of control | [13] 105 % of control | [6] 95 % of control | [14] 89 % of control

O=C(Nc1ccc(F)cc1)Nc1cccc(C(F)(F)F)c1
inactive: dose: 50.0 mg/kg/injection, schedule: Q01DX009 (ip), vehicle: Klucel (hydroxypropylcellulose) (HPC) 103 % of control | [2] 107 % of control | [4] 92 % of control

NS(=O)(=O)c1ccc(NC(=O)Nc2ccccc2Cl)cc1
inactive: [1] 90 % of control | [2] 100 % of control and 90 % of control | [15] 97 % of control and 108 % of control | [11] 106 % of control | [3] 88 % of control | [4] 94 % of control and 103 % of control | [16] 93 % of control and 108 % of control | [13] 106 % of control | [5] 92 % of control | [6] 98 % of control and 90 % of control | dose: 400.0 mg/kg/injection, schedule: Q04DX002 (ip), vehicle: Klucel (hydroxypropylcellulose) (HPC) 108 % of control and 92 % of control | [14] 105 % of control

CC1C2CC3OC(=O)C1(C)C3C2 (stereo not given)
inactive: [7] 92 % of control | [8] 98 % of control | [9] 96 % of control

CCCC/C=C/C1C=CCCC1 (stereo not given)
inactive: dose: 50.0 mg/kg/injection, schedule: Q01DX009 (ip), vehicle: other 100 % of control | [10] 95 % of control | [12] 100 % of control

CC1NC(=S)NC(=O)C1CCSC(=N)N (stereo not given)
inactive: [7] 104 % of control | [8] 98 % of control

O=C1C2Nc3ccccc3CC2CN1Cc1ccccc1 (stereo not given)
inactive: dose: 10.0 mg/kg/injection, schedule: Q04DX003 (ip), vehicle: alcohol 106 % of control | dose: 20.0 mg/kg/injection, schedule: Q04DX003 (ip), vehicle: alcohol 99 % of control | dose: 40.0 mg/kg/injection, schedule: Q04DX003 (ip), vehicle: alcohol 99 % of control | dose: 80.0 mg/kg/injection, schedule: Q04DX003 (ip), vehicle: alcohol 97 % of control | dose: 160.0 mg/kg/injection, schedule: Q04DX003 (ip), vehicle: alcohol 100 % of control

CN=C(N)N(C)/N=C(C)\C=N\N(C)C(N)=NC
inactive: dose: 15.0 mg/kg/injection, schedule: Q01DX Z (ip), vehicle: carboxymethylcellulose (CMC) 98 % of control | dose: 30.0 mg/kg/injection, schedule: Q01DX Z (ip), vehicle: carboxymethylcellulose (CMC) 96 % of control | dose: 60.0 mg/kg/injection, schedule: Q01DX Z (ip), vehicle: carboxymethylcellulose (CMC) 101 % of control | dose: 120.0 mg/kg/injection, schedule: Q01DX Z (ip), vehicle: carboxymethylcellulose (CMC) 113 % of control | dose: 240.0 mg/kg/injection, schedule: Q01DX Z (oral), vehicle: carboxymethylcellulose (CMC) 104 % of control | dose: 480.0 mg/kg/injection, schedule: Q01DX Z (oral), vehicle: carboxymethylcellulose (CMC) 104 % of control

CC(C)=CCC(OC(=O)C=C(C)C)C1=CC(=O)c2c(O)ccc(O)c2C1=O (stereo not given)
inactive: dose: 6.25 mg/kg/injection, schedule: Q01DX009 (ip), vehicle: saline 93 % of control | dose: 6.25 mg/kg/injection, schedule: Q04DX003 (ip), vehicle: saline 98 % of control | dose: 12.5 mg/kg/injection, schedule: Q01DX009 (ip), vehicle: saline 92 % of control | dose: 12.5 mg/kg/injection, schedule: Q04DX003 (ip), vehicle: saline 101 % of control | dose: 25.0 mg/kg/injection, schedule: Q04DX003 (ip), vehicle: saline 104 % of control

CC#CCCC(=O)OCCC
inactive: dose: 100.0 mg/kg/injection, schedule: Q04DX002 (ip), vehicle: saline with Tween-80 121 % of control | dose: 200.0 mg/kg/injection, schedule: Q04DX002 (ip), vehicle: saline with Tween-80 93 % of control | dose: 400.0 mg/kg/injection, schedule: Q04DX002 (ip), vehicle: saline with Tween-80 108 % of control

OC(c1ccccc1)C1(O)CC2CCC1C2 (stereo not given)
inactive: dose: 6.25 mg/kg/injection, schedule: Q01DX001 (ip), vehicle: saline 96 % of control | dose: 125.0 mg/kg/injection, schedule: Q01DX001 (ip), vehicle: saline 100 % of control | dose: 250.0 mg/kg/injection, schedule: Q01DX001 (ip), vehicle: saline 98 % of control

O=[N+]([O-])/C=C/c1ccccc1Br
inactive: dose: 18.75 mg/kg/injection, schedule: Q04DX003 (ip), vehicle: Klucel (hydroxypropylcellulose) (HPC) 96 % of control | dose: 37.5 mg/kg/injection, schedule: Q04DX003 (ip), vehicle: Klucel (hydroxypropylcellulose) (HPC) 102 % of control | dose: 75.0 mg/kg/injection, schedule: Q04DX003 (ip), vehicle: Klucel (hydroxypropylcellulose) (HPC) 104 % of control

O=C(CCCNC(=O)OCc1ccccc1)NCCCCCCCCCCNC(=O)CCCNC(=O)OCc1ccccc1
inactive: dose: 10.0 mg/kg/injection, schedule: Q01DX012 (ip), vehicle: saline 102 % of control | dose: 30.0 mg/kg/injection, schedule: Q01DX012 (ip), vehicle: saline 96 % of control | dose: 100.0 mg/kg/injection, schedule: Q01DX012 (ip), vehicle: saline 90 % of control | dose: 300.0 mg/kg/injection, schedule: Q01DX012 (ip), vehicle: saline 91 % of control

Cc1cccc(Cl)c1NC(=O)Nc1cc(Cl)ccc1O
inactive: [2] 107 % of control | [4] 93 % of control | [6] 100 % of control

C=CCCCCCCCCC(=O)N/N=C/c1ccccc1
inactive: [15] 95 % of control | [16] 100 % of control
